# Experiments:
# rice = assay: Test D flooded paddy test; type: in vivo, Oryza sativa; details: 250 g ai/ha, applied to paddy water, visual rating after 13 to 14 days, scale 0 to 100 (0 no effect, 100 complete control)
# How it was run: (§1)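 Seedlings reached the 2-leaf stage, then pots were flooded to 3 cm over the soil surface. Compound was applied into the water, depth was maintained, and plants stayed in the greenhouse 13 to 14 days before visual scoring (0–100) relative to controls.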
# sedge, umbrella = assay: Test D flooded paddy test; type: in vivo, Cyperus difformis; details: 250 g ai/ha, applied to paddy water, visual rating after 13 to 14 days, scale 0 to 100 (0 no effect, 100 complete control)
# How it was run: as §1
# corn [1] = assay: Test C postemergence; type: in vivo, Zea mays; details: 10 days, 0 to 100 scale (0 no effect, 100 complete control)
# How it was run: (§2)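 Pre: seeds in loam/sand, directed soil spray. Post: 1–2 leaf plants, 2–10 cm. Cmpd in non-phytotoxic solvent + surfactant. Greenhouse 10 d; visual rating vs untreated, 0 = none, 100 = complete control.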
# barnyardgrass [2] = assay: Test C preemergence; type: in vivo, Echinochloa crusgalli
# How it was run: as §2
# oat, wild [3] = assay: Test C preemergence; type: in vivo, Avena fatua
# How it was run: as §2
# barnyardgrass [4] = assay: Test D flooded paddy test; type: in vivo, Echinochloa crus-galli; details: 250 g ai/ha, applied to paddy water, visual rating after 13 to 14 days, scale 0 to 100 (0 no effect, 100 complete control)
# How it was run: as §1
# ryegrass, Italian [5] = assay: Test C preemergence; type: in vivo, Lolium multiflorum
# How it was run: as §2
# ryegrass, Italian [6] = assay: Test C postemergence; type: in vivo, Lolium multiflorum; details: 10 days, 0 to 100 scale (0 no effect, 100 complete control)
# How it was run: as §2
# blackgrass [7] = assay: Test C postemergence; type: in vivo, Alopecurus myosuroides; details: 10 days, 0 to 100 scale (0 no effect, 100 complete control)
# How it was run: as §2
# pigweed, palmer [8] = assay: Test C postemergence; type: in vivo, Amaranthus palmeri; details: 10 days, 0 to 100 scale (0 no effect, 100 complete control)
# How it was run: as §2
# kochia [9] = assay: Test C postemergence; type: in vivo, Bassia scoparia; details: 10 days, 0 to 100 scale (0 no effect, 100 complete control)
# How it was run: as §2
# pigweed, palmer [10] = assay: Test C preemergence; type: in vivo, Amaranthus palmeri
# How it was run: as §2
# kochia [11] = assay: Test C preemergence; type: in vivo, Bassia scoparia
# How it was run: as §2
# horseweed = assay: Test C postemergence; type: in vivo, Erigeron canadensis; details: 10 days, 0 to 100 scale (0 no effect, 100 complete control)
# How it was run: as §2
# ragweed [12] = assay: Test C preemergence; type: in vivo, Ambrosia artemisiifolia
# How it was run: as §2
# blackgrass [13] = assay: Test C preemergence; type: in vivo, Alopecurus myosuroides
# How it was run: as §2
# soybean [14] = assay: Test C postemergence; type: in vivo, Glycine max; details: 10 days, 0 to 100 scale (0 no effect, 100 complete control)
# How it was run: as §2
# wheat [15] = assay: Test C postemergence; type: in vivo, Triticum aestivum; details: 10 days, 0 to 100 scale (0 no effect, 100 complete control)
# How it was run: as §2
# green foxtail [16] = assay: Test C preemergence; type: in vivo, Setaria viridis
# How it was run: as §2
# ragweed [17] = assay: Test C postemergence; type: in vivo, Ambrosia artemisiifolia; details: 10 days, 0 to 100 scale (0 no effect, 100 complete control)
# How it was run: as §2
# ducksalad = assay: Test D flooded paddy test; type: in vivo, Heteranthera limosa; details: 250 g ai/ha, applied to paddy water, visual rating after 13 to 14 days, scale 0 to 100 (0 no effect, 100 complete control)
# How it was run: as §1
# corn [18] = assay: Test C preemergence; type: in vivo, Zea mays
# How it was run: as §2
# wheat [19] = assay: Test C preemergence; type: in vivo, Triticum aestivum
# How it was run: as §2
# galium = assay: Test C postemergence; type: in vivo, Galium aparine; details: 10 days, 0 to 100 scale (0 no effect, 100 complete control)
# How it was run: as §2
# soybean [20] = assay: Test C preemergence; type: in vivo, Glycine max
# How it was run: as §2
# barnyardgrass [21] = assay: Test C postemergence; type: in vivo, Echinochloa crusgalli; details: 10 days, 0 to 100 scale (0 no effect, 100 complete control)
# How it was run: as §2
# green foxtail [22] = assay: Test C postemergence; type: in vivo, Setaria viridis; details: 10 days, 0 to 100 scale (0 no effect, 100 complete control)
# How it was run: as §2
# oat, wild [23] = assay: Test C postemergence; type: in vivo, Avena fatua; details: 10 days, 0 to 100 scale (0 no effect, 100 complete control)
# How it was run: as §2
# [24] = 500 g ai/ha, preemergence, 0 to 100 scale (0 no effect, 100 complete control)
# [25] = Preemergence, 125 g ai/ha, 0 to 100 scale, 0 no effect, 100 complete control
compound,measurement,setting,value
CC(C)c1ncn(-c2ccc(OS(C)(=O)=O)c(C(=O)N3C[C@H](C)Oc4c(Cl)cccc43)c2)n1 [Compound 338],"Plant response rating, Rice (Flood)",rice,10
same,"Plant response rating, Sedge, Umbrella (Flood)","sedge, umbrella",45
same,"Plant response rating, Corn","corn [1]; 500 g ai/ha, postemergence",80
same,"Plant response rating, Corn","corn [1]; Postemergence, 125 g ai/ha",80
same,Barnyardgrass plant response rating,barnyardgrass [2]; [24],100
same,"Plant response rating, Barnyardgrass",barnyardgrass [2]; [25],60
same,"Oat, Wild plant response rating","oat, wild [3]; [24]",50
same,"Plant response rating, Oat, Wild","oat, wild [3]; [25]",30
same,"Plant response rating, Barnyardgrass (Flood)",barnyardgrass [4],10
same,"Ryegrass, Italian plant response rating","ryegrass, Italian [5]; [24]",100
same,"Plant response rating, Ryegrass, Italian","ryegrass, Italian [5]; [25]",90
same,"Plant response rating, Ryegrass, Italian","ryegrass, Italian [6]; 500 g ai/ha, postemergence",80
same,"Plant response rating, Ryegrass, Italian","ryegrass, Italian [6]; Postemergence, 125 g ai/ha",70
same,"Plant response rating, Blackgrass","blackgrass [7]; 500 g ai/ha, postemergence",70
same,"Plant response rating, Blackgrass","blackgrass [7]; Postemergence, 125 g ai/ha",40
same,"Plant response rating, Pigweed, Palmer","pigweed, palmer [8]; 500 g ai/ha, postemergence",100
same,"Plant response rating, Pigweed, Palmer","pigweed, palmer [8]; Postemergence, 125 g ai/ha",90
same,"Plant response rating, Kochia","kochia [9]; 500 g ai/ha, postemergence",100
same,"Plant response rating, Kochia","kochia [9]; Postemergence, 125 g ai/ha",90
same,"Pigweed, Palmer plant response rating","pigweed, palmer [10]; [24]",100
same,"Plant response rating, Pigweed, Palmer","pigweed, palmer [10]; [25]",100
same,Kochia plant response rating,kochia [11]; [24],100
same,"Plant response rating, Kochia",kochia [11]; [25],60
same,"Plant response rating, Horseweed","horseweed; 500 g ai/ha, postemergence",20
same,"Plant response rating, Horseweed","horseweed; Postemergence, 125 g ai/ha",10
same,Ragweed plant response rating,ragweed [12]; [24],0
same,"Plant response rating, Ragweed",ragweed [12]; [25],0
same,Blackgrass plant response rating,blackgrass [13]; [24],80
same,"Plant response rating, Blackgrass",blackgrass [13]; [25],20
same,"Plant response rating, Soybean","soybean [14]; 500 g ai/ha, postemergence",100
same,"Plant response rating, Soybean","soybean [14]; Postemergence, 125 g ai/ha",100
same,"Plant response rating, Wheat","wheat [15]; 500 g ai/ha, postemergence",40
same,"Plant response rating, Wheat","wheat [15]; Postemergence, 125 g ai/ha",20
same,"Foxtail, Green plant response rating",green foxtail [16]; [24],100
same,"Plant response rating, Foxtail, Green",green foxtail [16]; [25],90
same,"Plant response rating, Ragweed","ragweed [17]; 500 g ai/ha, postemergence",40
same,"Plant response rating, Ragweed","ragweed [17]; Postemergence, 125 g ai/ha",30
same,"Plant response rating, Ducksalad (Flood)",ducksalad,40
same,Corn plant response rating,corn [18]; [24],50
same,"Plant response rating, Corn",corn [18]; [25],10
same,Wheat plant response rating,wheat [19]; [24],20
same,"Plant response rating, Wheat",wheat [19]; [25],0
same,"Plant response rating, Galium","galium; 500 g ai/ha, postemergence",100
same,"Plant response rating, Galium","galium; Postemergence, 125 g ai/ha",100
same,Soybean plant response rating,soybean [20]; [24],80
same,"Plant response rating, Soybean",soybean [20]; [25],30
same,"Plant response rating, Barnyardgrass","barnyardgrass [21]; 500 g ai/ha, postemergence",70
same,"Plant response rating, Barnyardgrass","barnyardgrass [21]; Postemergence, 125 g ai/ha",30
same,"Plant response rating, Foxtail, Green","green foxtail [22]; 500 g ai/ha, postemergence",70
same,"Plant response rating, Foxtail, Green","green foxtail [22]; Postemergence, 125 g ai/ha",30
same,"Plant response rating, Oat, Wild","oat, wild [23]; 500 g ai/ha, postemergence",20
same,"Plant response rating, Oat, Wild","oat, wild [23]; Postemergence, 125 g ai/ha",20
